Data reported in USRE49080E1, “Glycoside derivatives and uses thereof” (Novartis AG, priority 2009, dated 2022).

Columns and labels:
[1] = target: human sodium glucose co-transporter 2 (Homo sapiens (Human), UniProt P31639); experiment: SGLT-2 assay: 14C-AMG uptake in CHO-hSGLT2 or HEK-hSGLT2 cells; type: cell-based; conditions: n = 1-4, cells stably transfected with hSGLT2, read-out: SGLT2 IC50 nM (n = 1-4)
Description: These cell lines transport 14 C-labelled alpha-methyl-glucopyranoside (14 C-AMG, Amersham) into the interior of the cell in sodium-dependent manner.
(§1) The SGLT-2 assay is carried out as follows: CHO-hSGLT2 cells are cultivated in Ham's F12 Medium (BioWhittaker) with 10% foetal calf serum and 250 μg/mL zeocin (Invitrogen), and HEK293-hSGLT2 cells are cultivated in DMEM medium with 10% foetal calf serum and 250 μg/mL zeocin (Invitrogen). The cells are detached from the culture flasks by washing twice with PBS and subsequently treating with trypsin/EDTA. After the addition of cell culture medium the cells are centrifuged, resuspended in culture medium and counted in a Casy cell counter. Then 40,000 cells per well are seeded into a white, 96-well plate coated with poly-D-lysine and incubated overnight at 37° C., 5% CO2. The cells are washed twice with 250 μl of assay buffer (Hanks Balanced Salt Solution, 137 mM NaCl, 5.4 mM KCl, 2.8 mM CaCl2, 1.2 mM MgSO4 and 10 mM HEPES (pH 7.4), 50 μg/mL of gentamycin). 250 μl of assay buffer and 5 μl of test compound are then added to each well and the plate is incubated for a further 15 minutes in the incubator. 5 μl of 10% DMSO are used as the negative control. The reaction is started by adding 5 μl of 14 C-AMG (0.05 μCi) to each well. After 2 hours' incubation at 37° C., 5% CO2, the cells are washed again with 250 μl of PBS […] and then lysed by the addition of 25 μl of 0.1 N NaOH (5 min. at 37° C.). 200 μl of MicroScint20 (Packard) are added to each well and incubation is continued for a further 20 min at 37° C. After this incubation the radioactivity of the 14 C-AMG absorbed is measured in a Topcount (Packard) using a 14 C scintillation program.

human SGLT1 = human SGLT1 (Homo sapiens (Human), UniProt P13866); experiment: SGLT1 assay: analogous test with hSGLT1 cDNA expressed in CHO-K1 or HEK293 cells; type: cell-based; conditions: n = 1-4; 14C-AMG uptake, cells expressing hSGLT1
human SGLT1, sequence (P13866 whole entry): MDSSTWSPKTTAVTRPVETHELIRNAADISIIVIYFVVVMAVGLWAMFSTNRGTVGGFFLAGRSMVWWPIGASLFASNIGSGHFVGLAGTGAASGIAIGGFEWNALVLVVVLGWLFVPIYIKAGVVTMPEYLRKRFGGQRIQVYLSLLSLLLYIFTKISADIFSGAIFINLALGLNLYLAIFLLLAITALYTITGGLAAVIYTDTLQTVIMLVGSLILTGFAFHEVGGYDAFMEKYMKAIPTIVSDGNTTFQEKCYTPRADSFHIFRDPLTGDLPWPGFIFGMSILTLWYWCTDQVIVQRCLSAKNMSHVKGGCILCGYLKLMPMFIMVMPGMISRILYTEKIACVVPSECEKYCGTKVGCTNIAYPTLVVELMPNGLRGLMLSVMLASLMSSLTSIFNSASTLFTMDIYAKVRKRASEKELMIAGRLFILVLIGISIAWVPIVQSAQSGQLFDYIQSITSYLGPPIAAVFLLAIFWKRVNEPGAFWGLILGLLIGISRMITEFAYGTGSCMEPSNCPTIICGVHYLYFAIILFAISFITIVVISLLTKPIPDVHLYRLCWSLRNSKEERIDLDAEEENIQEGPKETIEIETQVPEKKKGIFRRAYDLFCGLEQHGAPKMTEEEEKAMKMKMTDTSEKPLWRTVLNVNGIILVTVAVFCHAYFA
Description: as §1
To determine the selectivity with respect to human SGLT1 an analogous test is set up in which the cDNA for hSGLTI (Genbank Ace. No. NM000343) instead of hSGLT2 cDNA is expressed in CHO-K1 or HEK293 cells.

human sodium glucose co-transporter 2, sequence (P31639 whole entry): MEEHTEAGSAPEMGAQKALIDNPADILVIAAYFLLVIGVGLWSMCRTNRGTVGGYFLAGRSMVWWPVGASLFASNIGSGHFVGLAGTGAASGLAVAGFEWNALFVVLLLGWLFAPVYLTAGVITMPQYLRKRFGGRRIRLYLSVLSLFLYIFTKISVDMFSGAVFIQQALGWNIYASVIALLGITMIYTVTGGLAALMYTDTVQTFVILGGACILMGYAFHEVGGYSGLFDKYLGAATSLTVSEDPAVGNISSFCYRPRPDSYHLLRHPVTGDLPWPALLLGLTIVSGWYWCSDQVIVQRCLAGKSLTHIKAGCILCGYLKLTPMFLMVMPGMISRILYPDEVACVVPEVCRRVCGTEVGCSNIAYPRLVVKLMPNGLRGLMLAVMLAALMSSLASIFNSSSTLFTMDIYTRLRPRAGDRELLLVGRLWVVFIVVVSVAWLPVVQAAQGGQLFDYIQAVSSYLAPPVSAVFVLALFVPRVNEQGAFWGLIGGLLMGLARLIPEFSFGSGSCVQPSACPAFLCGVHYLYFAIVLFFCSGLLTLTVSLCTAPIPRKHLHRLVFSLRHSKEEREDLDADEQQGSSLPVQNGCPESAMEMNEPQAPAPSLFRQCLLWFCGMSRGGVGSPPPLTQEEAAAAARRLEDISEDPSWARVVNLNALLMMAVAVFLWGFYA

## COc1ccc([C@@H]2O[C@H](CO)[C@@H](O)[C@H](O)[C@H]2O)cc1Cc1ccc2c(c1)NCCO2 [Example 31, (2S,3R,4R,5S,6R)-2-[3-(3,4-Dihydro-2H-benzo[1,4]oxazin-6-ylmethyl)-4-methoxy-phenyl]-6-hydroxymethyl-tetrahydro-pyran-3,4,5-triol]
[1]
  IC50: 1.2 nM
Human SGLT1
  IC50: 404 nM

## OC[C@H]1O[C@@H](c2ccc(Cl)c(Cc3ccc4c(c3)OCCN4C3CC3)c2)[C@H](O)[C@@H](O)[C@@H]1O [Example 3, (2S,3R,4R,5S,6R)-2-[4-Chloro-3-(4-cyclopropyl-3,4-dihydro-2Hbenzo[1,4]oxazin-7ylmethyl)-phenyl]-6-hydroxymethyltetrahydropyran3,4,5-triol]
[1]
  IC50: 16 nM

## OC[C@H]1O[C@@H](c2ccc(Cl)c(Cc3ccc4c(c3)N(Cc3ccccc3)CCO4)c2)[C@H](O)[C@@H](O)[C@@H]1O [Example 4, (2S,3R,4R,5S,6R)-2-[3-(4-Benzyl-3,4-dihydro-2H-benzo[1,4]oxazin-6-ylmethyl)-4-chloro-phenyl]-6-hydroxymethyl-tetrahydro-pyran-3,4,5-triol]
[1]
  IC50: 65 nM

## OC[C@H]1O[C@@H](c2ccc(Cl)c(Cc3ccc4c(c3)C3(CCO4)CC3)c2)[C@H](O)[C@@H](O)[C@@H]1O [Example 29, (2S,3R,4R,5S,6R)-2-[4-Chloro-3-(4,4-spiro-cyclopropyl-chroman-6-ylmethyl)-phenyl]-6-hydroxymethyl-tetrahydro-pyran-3,4,5-triol]
[1]
  IC50: 84.5 nM
Human SGLT1
  IC50: 7000 nM

## CC1(C)CNc2cc(Cc3cc([C@@H]4O[C@H](CO)[C@@H](O)[C@H](O)[C@H]4O)ccc3Cl)ccc2O1 [Example 20, (2S,3R,4R,5S,6R)-2-[4-Chloro-3-(2,2-dimethyl-3,4-dihydro-2H-benzo[1,4]oxazin-6-ylmethyl)-phenyl]-6-hydroxymethyl-tetrahydro-pyran-3,4,5-triol]
[1]
  IC50: 0.55 nM
Human SGLT1
  IC50: > 3700 nM

## OC[C@H]1O[C@@H](c2ccc(Cl)c(Cc3ccc4c(c3)NCCO4)c2)[C@H](O)[C@@H](O)[C@@H]1O [Example 8, (2S,3R,4R,5S,6R)-2-[4-Chloro-3-(3,4-dihydro-2H-benzo[1,4]oxazin-6-ylmethyl)-phenyl]-6-hydroxymethyl-tetrahydro-pyran-3,4,5-triol]
[1]
  IC50: 0.25 nM
Human SGLT1
  IC50: 725 nM

## OC[C@H]1O[C@@H](c2ccc(Cl)c(Cc3ccc4c(c3)N(CC3CC3)CCO4)c2)[C@H](O)[C@@H](O)[C@@H]1O [Example 10, (2S,3R,4R,5S,6R)-2-[4-Chloro-3-(4-cyclopropylmethyl-3,4-dihydro-2H-benzo[1,4]oxazin-6-ylmethyl)-phenyl]-6-hydroxymethyl-tetrahydro-pyran-3,4,5-triol]
[1]
  IC50: 18 nM

## OC[C@H]1O[C@@H](c2ccc(Cl)c(Cc3ccc4c(c3)OCCN4)c2)[C@H](O)[C@@H](O)[C@@H]1O [Example 28, (2S,3R,4R,5S,6R)-2-[4-Chloro-3-(3,4-dihydro-2H-benzo[1,4]oxazin-7-ylmethyl)-phenyl]-6-hydroxymethyl-tetrahydro-pyran-3,4,5-triol]
[1]
  IC50: 0.33 nM
Human SGLT1
  IC50: 1000 nM

## COc1ccc([C@@H]2O[C@H](CO)[C@@H](O)[C@H](O)[C@H]2O)cc1Cc1ccc2c(c1)CCC1(CCC1)O2 [Example 41, (2S,3R,4R,5S,6R)-2-[4-methoxy-3-(spiro[chromane-2,1′-cyclobutane]-6-ylmethyl)phenyl]-6-(hydroxymethyl)tetrahydropyran-3,4,5-triol]
[1]
  IC50: 16.2 nM
Human SGLT1
  IC50: 1620 nM

## OC[C@H]1O[C@@H](c2ccc(OC(F)(F)F)c(Cc3ccc4c(c3)CCCO4)c2)[C@H](O)[C@@H](O)[C@@H]1O [Example 33, (2S,3R,4R,5S,6R)-2-(3-Chroman-6-ylmethyl-4-trifluoromethoxy-phenyl)-6-hydroxymethyl-tetrahydro-pyran-3,4,5-triol]
[1]
  IC50: 11 nM
Human SGLT1
  IC50: 157 nM

## OC[C@H]1O[C@@H](c2ccc(Cl)c(Cc3ccc4c(c3)CCN4)c2)[C@H](O)[C@@H](O)[C@@H]1O [Example 17, (2S,3R,4R,5S,6R)-2-[4-Chloro-3-(2,3-dihydro-1H-indol-5-ylmethyl)-phenyl]-6-hydroxymethyl-tetrahydro-pyran-3,4,5-triol]
[1]
  IC50: 0.8 nM
Human SGLT1
  IC50: 480 nM

## OC[C@H]1O[C@@H](c2ccc(C3CC3)c(Cc3ccc4c(c3)NCCO4)c2)[C@H](O)[C@@H](O)[C@@H]1O [Example 65, (2S,3R,4R,5S,6R)-2-[4-Cyclopropyl-3-(3,4-dihydro-2H-benzo[1,4]oxazin-6-ylmethyl)-phenyl]-6-hydroxymethyl-tetrahydro-pyran-3,4,5-triol]
[1]
  IC50: 2.7 nM
Human SGLT1
  IC50: 170 nM

## OC[C@H]1O[C@@H](c2ccc(Cl)c(Cc3ccc4c(c3)CCCO4)c2)[C@H](O)[C@@H](O)[C@@H]1O [Example 21, (2S,3R,4R,5S,6R)-2-(4-Chloro-3-chroman-6-ylmethyl-phenyl)-6-hydroxymethyl-tetrahydro-pyran-3,4,5-triol]
[1]
  IC50: 0.2 nM
Human SGLT1
  IC50: 1100 nM

## CC(C)c1ccc([C@@H]2O[C@H](CO)[C@@H](O)[C@H](O)[C@H]2O)cc1Cc1ccc2c(c1)NCCC2 [Example 71, (2R,3S,4R,5R,6S)-2-Hydroxymethyl-6-[4-isopropyl-3-(1,2,3,4-tetrahydro-quinolin-7-ylmethyl)-phenyl]-tetrahydro-pyran-3,4,5-triol]
[1]
  IC50: 1.5 nM
Human SGLT1
  IC50: 19 nM

## COc1ccc(CN2CCCc3cc(Cc4cc([C@@H]5O[C@H](CO)[C@@H](O)[C@H](O)[C@H]5O)ccc4Cl)ccc32)cc1 [Example 14, (2S,3R,4R,5S,6R)-2-{4-Chloro-3-[1-(4-methoxy-benzyl)-1,2,3,4-tetrahydro-quinolin-6-ylmethyl]-phenyl}-6-hydroxymethyl-tetrahydro-pyran-3,4,5-triol]
[1]
  IC50: 5.5 nM
Human SGLT1
  IC50: 800 nM

## O=C1CCOc2ccc(Cc3cc([C@@H]4O[C@H](CO)[C@@H](O)[C@H](O)[C@H]4O)ccc3Cl)cc21 [Example 35, 6-[2-Chloro-5-((2S,3R,4R,5S,6R)-3,4,5-trihydroxy-6-hydroxymethyl-tetrahydro-pyran-2-yl)-benzyl]-chroman-4-one]
[1]
  IC50: 9.5 nM
Human SGLT1
  IC50: 1100 nM

## COc1ccc([C@@H]2O[C@H](CO)[C@@H](O)[C@H](O)[C@H]2O)cc1Cc1ccc2c(c1)OCCO2 [Example 25, (2S,3R,4R,5S,6R)-2-[3-(2,3-Dihydro-benzo[1,4]dioxin-6-ylmethyl)-4-methoxy-phenyl]-6-hydroxymethyl-tetrahydro-pyran-3,4,5-triol]
[1]
  IC50: 1.5 nM
Human SGLT1
  IC50: 40 nM

## OC[C@H]1O[C@@H](c2ccc(Cl)c(Cc3ccc4c(c3)CCC3(CCCC3)O4)c2)[C@H](O)[C@@H](O)[C@@H]1O [Example 38, (2S,3R,4R,5S,6R)-2-[4-Chloro-3-(spiro[chromane-2,1′-cyclopentane]-6-ylmethyl)phenyl]-6-(hydroxymethyl)tetrahydropyran-3,4,5-triol]
[1]
  IC50: 14.4 nM

## CCc1ccc([C@@H]2O[C@H](CO)[C@@H](O)[C@H](O)[C@H]2O)cc1Cc1ccc2c(c1)NCCO2 [Example 66, (2S,3R,4R,5S,6R)-2-[3-(3,4-Dihydro-2H-benzo[1,4]oxazin-6-ylmethyl)-4-ethyl-phenyl]-6-hydroxymethyl-tetrahydro-pyran-3,4,5-triol]
[1]
  IC50: 0.9 nM
Human SGLT1
  IC50: 100 nM

## O=C1COc2ccc(Cc3cc([C@@H]4O[C@H](CO)[C@@H](O)[C@H](O)[C@H]4O)ccc3Cl)cc2N1 [Example 47, 6-(2-chloro-5-((2S,3R,4R,5S,6R)-3,4,5-trihydroxy-6-(hydroxymethyl)tetrahydro-2H-pyran-2-yl)benzyl)-2H-benzo[b][1,4]oxazin-3(4H)-one]
[1]
  IC50: 16.5 nM
Human SGLT1
  IC50: > 3200 nM

## CCN1CCOc2ccc(Cc3cc([C@@H]4O[C@H](CO)[C@@H](O)[C@H](O)[C@H]4O)ccc3Cl)cc21 [Example 9, (2S,3R,4R,5S,6R)-2-[4-Chloro-3-(4-ethyl-3,4-dihydro-2H-benzo[1,4]oxazin-6-ylmethyl)-phenyl]-6-hydroxymethyl-tetrahydro-pyran-3,4,5-triol]
[1]
  IC50: 7.2 nM

## OC[C@H]1O[C@@H](c2ccc(Cl)c(Cc3ccc4c(c3)C(O)CCO4)c2)[C@H](O)[C@@H](O)[C@@H]1O (stereo partly drawn) [Example 36, (2S,3R,4R,5S,6R)-2-[4-Chloro-3-(4-hydroxy-chroman-6-ylmethyl)-phenyl]-6-hydroxymethyl-tetrahydro-pyran-3,4,5-triol]
[1]
  IC50: 28 nM

## OC[C@H]1O[C@@H](c2ccc(Cl)c(Cc3ccc4c(c3)CCO4)c2)[C@H](O)[C@@H](O)[C@@H]1O [Example 22, (2S,3R,4R,5S,6R)-2-[4-Chloro-3-(2,3-dihydro-benzofuran-5-ylmethyl)-phenyl]-6-hydroxymethyl-tetrahydro-pyran-3,4,5-triol]
[1]
  IC50: 0.4 nM
